Values quoted from earlier work in patent US5246706A, “Device for administering bimakalim transdermally” (Cygnus Therapeutic Systems, priority 1991, dated 1993).

Assays:
potassium channel = conditions: background statement
[1] = known
[2] = octanol/phosphate buffer, pH 7.4; known

## CC1(C)Oc2ccc(C#N)cc2[C@@H](n2ccccc2=O)[C@@H]1O (single isomer, unassigned) [(-)-trans-3,4-dihydro-4-(1,2-dihydro-2-oxo-1-pyridyl)-3-hydroxy-2,2-dimethyl-2H-1-benzopyran-6-carbonitrile]
Potassium channel
  potassium channel activating properties: exhibits potassium channel activating properties

## CC1(C)C=C(n2ccccc2=O)c2cc(C#N)ccc2O1 [Bimakalim, 4-(1,2-dihydro-2-oxo-1-pyridyl)-2,2-dimethyl-2H-1-benzopyran-6-carbonitrile]
[1]
  water solubility: approximately 0.7 mg/ml
[2]
  partition coefficient: 27.0
Potassium channel
  potassium channel activating properties: potassium channel activating drug
